Measured values taken from the NIST ThermoML archive (doi:10.1021/acs.jced.8b00755).
± gives the expanded uncertainty stated by the source.

What was measured:
[1] = refractive index (Na D-line) (dimensionless); conditions: 298.15 K; 101.3 kPa; Liquid; Standard Abbe refractometry
[2] = relative permittivity at zero frequency (dimensionless); conditions: 298.15 K; 101.3 kPa; Liquid; Coaxial cylinder capacitor
[3] = refractive index (Na D-line) (dimensionless); xn = mol fraction of the nth substance listed; conditions: 298.15 K, 101.3 kPa, Liquid, Standard Abbe refractometry
[4] = relative permittivity at zero frequency (dimensionless); xn = mol fraction of the nth substance listed; conditions: 298.15 K, 101.3 kPa, Liquid, Coaxial cylinder capacitor
[5] = xn = mol fraction of the nth substance listed; conditions: 298.15 K, 101.3 kPa, Liquid, Vibrating tube method
[6] = 298.15 K; 101.3 kPa; Liquid; Vibrating tube method

For `O=C1CCCC1` [cyclopentanone], the refractive index [1] was 1.4347 ± 0.0011 and the “relative permittivity at zero frequency” value [2] was 13.52 ± 0.63.
In the case of `O=C1CCCCC1` [cyclohexanone] + OC1CCCCC1, the refractive index ([3]; x2 = 0) is reported as 1.4485 ± 0.0011 and the “relative permittivity at zero frequency” value ([4]; x2 = 0) is reported as 15.81 ± 0.68.
With `CCCCO` [butan-1-ol] + O=C1CCCCC1 the mass density ([5]; x1 = 1) was 805.92 ± 1 kg/m3, the refractive index ([3]; x1 = 1) was 1.3971 ± 0.0011 and the “relative permittivity at zero frequency” value ([4]; x1 = 1) was 17.49 ± 0.71.
For `CCO` [ethanol], the mass density [6] was 785.26 ± 1 kg/m3, the refractive index [1] was 1.3594 ± 0.0011 and the “relative permittivity at zero frequency” value [2] was 24.37 ± 0.84.
In the case of `CCCCCCCCO` [octan-1-ol], the mass density [6] is reported as 821.98 ± 1 kg/m3, the refractive index [1] is reported as 1.4276 ± 0.0011 and the “relative permittivity at zero frequency” value [2] is reported as 9.85 ± 0.55.
For `C1CCCCC1` [cyclohexane] + O=C1CCCC1, the refractive index ([3]; x2 = 0) was 1.4235 ± 0.001 and the “relative permittivity at zero frequency” value ([4]; x2 = 0) was 2.02 ± 0.29.
For `CCO` [ethanol] + O=C1CCCCC1, the mass density ([5]; x1 = 1) was 785.26 ± 1 kg/m3, the refractive index ([3]; x1 = 1) was 1.3594 ± 0.0011 and the “relative permittivity at zero frequency” value ([4]; x1 = 1) was 24.37 ± 0.84.
`O=C1CCCC1` [cyclopentanone] + OC1CCCCC1 gave a refractive index ([3]; x2 = 0) of 1.4347 ± 0.0011, a refractive index ([3]; x2 = 0.1) of 1.4372 ± 0.0011 and a refractive index ([3]; x2 = 0.2) of 1.4397 ± 0.0011. The refractive index ([3]; x2 = 0.3) was 1.4423 ± 0.0011, the refractive index ([3]; x2 = 0.4) was 1.445 ± 0.0011 and the refractive index ([3]; x2 = 0.5) was 1.4479 ± 0.0011. The refractive index ([3]; x2 = 0.6) was 1.4509 ± 0.0011, the refractive index ([3]; x2 = 0.7) was 1.4541 ± 0.0011 and the refractive index ([3]; x2 = 0.8) was 1.4575 ± 0.0011. The refractive index ([3]; x2 = 0.9) was 1.461 ± 0.0011, the “relative permittivity at zero frequency” value ([4]; x2 = 0) was 13.52 ± 0.63 and the “relative permittivity at zero frequency” value ([4]; x2 = 0.1) was 13.1 ± 0.62. For the same molecule, the “relative permittivity at zero frequency” value ([4]; x2 = 0.2) was 12.78 ± 0.62, the “relative permittivity at zero frequency” value ([4]; x2 = 0.3) was 12.55 ± 0.61 and the “relative permittivity at zero frequency” value ([4]; x2 = 0.4) was 12.42 ± 0.61. The “relative permittivity at zero frequency” value ([4]; x2 = 0.5) was 12.43 ± 0.61, the “relative permittivity at zero frequency” value ([4]; x2 = 0.6) was 12.61 ± 0.61 and the “relative permittivity at zero frequency” value ([4]; x2 = 0.7) was 12.99 ± 0.62. For the same molecule, the “relative permittivity at zero frequency” value ([4]; x2 = 0.8) was 13.59 ± 0.63 and the “relative permittivity at zero frequency” value ([4]; x2 = 0.9) was 14.48 ± 0.65.
For `O=C1CCCC1` [cyclopentanone] + C1CCCCC1, the refractive index ([3]; x1 = 0.1) was 1.4236 ± 0.001, the refractive index ([3]; x1 = 0.2) was 1.4239 ± 0.001 and the refractive index ([3]; x1 = 0.3) was 1.4244 ± 0.001. It also gave a refractive index ([3]; x1 = 0.4) of 1.4252 ± 0.001, a refractive index ([3]; x1 = 0.5) of 1.4262 ± 0.001 and a refractive index ([3]; x1 = 0.6) of 1.4274 ± 0.001. It also gave a refractive index ([3]; x1 = 0.7) of 1.4289 ± 0.0011, a refractive index ([3]; x1 = 0.8) of 1.4306 ± 0.0011 and a refractive index ([3]; x1 = 0.9) of 1.4325 ± 0.0011. The refractive index ([3]; x1 = 1) was 1.4347 ± 0.0011, the “relative permittivity at zero frequency” value ([4]; x1 = 0.1) was 2.78 ± 0.32 and the “relative permittivity at zero frequency” value ([4]; x1 = 0.2) was 3.61 ± 0.36. For the same molecule, the “relative permittivity at zero frequency” value ([4]; x1 = 0.3) was 4.51 ± 0.39, the “relative permittivity at zero frequency” value ([4]; x1 = 0.4) was 5.51 ± 0.42 and the “relative permittivity at zero frequency” value ([4]; x1 = 0.5) was 6.6 ± 0.46. For the same molecule, the “relative permittivity at zero frequency” value ([4]; x1 = 0.6) was 7.78 ± 0.49, the “relative permittivity at zero frequency” value ([4]; x1 = 0.7) was 9.06 ± 0.53 and the “relative permittivity at zero frequency” value ([4]; x1 = 0.8) was 10.45 ± 0.56. For the same molecule, the “relative permittivity at zero frequency” value ([4]; x1 = 0.9) was 11.94 ± 0.6 and the “relative permittivity at zero frequency” value ([4]; x1 = 1) was 13.52 ± 0.63.
Molecule `OC1CCCCC1` [cyclohexanol] + C1CCCCC1 has a refractive index ([3]; x1 = 0.02) of 1.424 ± 0.001, a refractive index ([3]; x1 = 0.04) of 1.4245 ± 0.001 and a refractive index ([3]; x1 = 0.05) of 1.4247 ± 0.001. For the same molecule, the refractive index ([3]; x1 = 0.06) was 1.425 ± 0.001, the refractive index ([3]; x1 = 0.08) was 1.4255 ± 0.001 and the refractive index ([3]; x1 = 0.1) was 1.426 ± 0.001. For the same molecule, the “relative permittivity at zero frequency” value ([4]; x1 = 0.02) was 2.084 ± 0.29, the “relative permittivity at zero frequency” value ([4]; x1 = 0.04) was 2.151 ± 0.29 and the “relative permittivity at zero frequency” value ([4]; x1 = 0.05) was 2.184 ± 0.3. The “relative permittivity at zero frequency” value ([4]; x1 = 0.06) was 2.219 ± 0.3, the “relative permittivity at zero frequency” value ([4]; x1 = 0.08) was 2.285 ± 0.3 and the “relative permittivity at zero frequency” value ([4]; x1 = 0.1) was 2.354 ± 0.3.
For `OC1CCCCC1` [cyclohexanol] + O=C1CCCCC1, the refractive index ([3]; x1 = 0.1) was 1.4498 ± 0.0011, the refractive index ([3]; x1 = 0.2) was 1.4512 ± 0.0011 and the refractive index ([3]; x1 = 0.3) was 1.4527 ± 0.0011. For the same molecule, the refractive index ([3]; x1 = 0.4) was 1.4542 ± 0.0011, the refractive index ([3]; x1 = 0.5) was 1.4558 ± 0.0011 and the refractive index ([3]; x1 = 0.6) was 1.4574 ± 0.0011. The refractive index ([3]; x1 = 0.7) was 1.4591 ± 0.0011, the refractive index ([3]; x1 = 0.8) was 1.4608 ± 0.0011 and the refractive index ([3]; x1 = 0.9) was 1.4626 ± 0.0011. The refractive index ([3]; x1 = 1) was 1.4646 ± 0.0011, the “relative permittivity at zero frequency” value ([4]; x1 = 0.1) was 15.16 ± 0.67 and the “relative permittivity at zero frequency” value ([4]; x1 = 0.2) was 14.63 ± 0.66. The “relative permittivity at zero frequency” value ([4]; x1 = 0.3) was 14.24 ± 0.65, the “relative permittivity at zero frequency” value ([4]; x1 = 0.4) was 13.99 ± 0.64 and the “relative permittivity at zero frequency” value ([4]; x1 = 0.5) was 13.91 ± 0.64. For the same molecule, the “relative permittivity at zero frequency” value ([4]; x1 = 0.6) was 13.98 ± 0.64, the “relative permittivity at zero frequency” value ([4]; x1 = 0.7) was 14.2 ± 0.6 and the “relative permittivity at zero frequency” value ([4]; x1 = 0.8) was 14.57 ± 0.65. For the same molecule, the “relative permittivity at zero frequency” value ([4]; x1 = 0.9) was 15.08 ± 0.67 and the “relative permittivity at zero frequency” value ([4]; x1 = 1) was 15.71 ± 0.68.
With `CCCCCCCCCCO` [decan-1-ol] + O=C1CCCCC1 the mass density ([5]; x1 = 1) was 826.71 ± 1 kg/m3, the refractive index ([3]; x1 = 1) was 1.4352 ± 0.0011 and the “relative permittivity at zero frequency” value ([4]; x1 = 1) was 7.74 ± 0.49.
In the case of `C1CCCCC1` [cyclohexane] + OC1CCCCC1, the refractive index ([3]; x2 = 0) is reported as 1.4235 ± 0.001 and the “relative permittivity at zero frequency” value ([4]; x2 = 0) is reported as 2.021 ± 0.29.
In the case of `CCCCCCCCCCO` [decan-1-ol], the mass density [6] is reported as 826.71 ± 1 kg/m3, the refractive index [1] is reported as 1.4352 ± 0.0011 and the “relative permittivity at zero frequency” value [2] is reported as 7.74 ± 0.49.
In the case of `O=C1CCCCC1` [cyclohexanone] + CCCCO, the mass density ([5]; x2 = 0) is reported as 942.47 ± 1 kg/m3, the mass density ([5]; x2 = 0.1) is reported as 932.83 ± 1 kg/m3 and the mass density ([5]; x2 = 0.2) is reported as 922.35 ± 1.1 kg/m3. It also gave a mass density ([5]; x2 = 0.3) of 910.57 ± 1.1 kg/m3, a mass density ([5]; x2 = 0.4) of 897.77 ± 1.1 kg/m3 and a mass density ([5]; x2 = 0.5) of 883.98 ± 1.1 kg/m3. It also gave a mass density ([5]; x2 = 0.6) of 869.51 ± 1.1 kg/m3, a mass density ([5]; x2 = 0.7) of 854.54 ± 1.1 kg/m3 and a mass density ([5]; x2 = 0.8) of 838.96 ± 1.1 kg/m3. The mass density ([5]; x2 = 0.9) was 822.78 ± 1.1 kg/m3, the refractive index ([3]; x2 = 0) was 1.4485 ± 0.0011 and the refractive index ([3]; x2 = 0.1) was 1.4441 ± 0.0011. For the same molecule, the refractive index ([3]; x2 = 0.2) was 1.4396 ± 0.0011, the refractive index ([3]; x2 = 0.3) was 1.4347 ± 0.0011 and the refractive index ([3]; x2 = 0.4) was 1.4301 ± 0.0011. The refractive index ([3]; x2 = 0.5) was 1.4253 ± 0.0011, the refractive index ([3]; x2 = 0.6) was 1.4204 ± 0.0011 and the refractive index ([3]; x2 = 0.7) was 1.4147 ± 0.0011. The refractive index ([3]; x2 = 0.8) was 1.4086 ± 0.0011, the refractive index ([3]; x2 = 0.9) was 1.4035 ± 0.0011 and the “relative permittivity at zero frequency” value ([4]; x2 = 0) was 15.81 ± 0.68. The “relative permittivity at zero frequency” value ([4]; x2 = 0.1) was 15.3 ± 0.67, the “relative permittivity at zero frequency” value ([4]; x2 = 0.2) was 14.95 ± 0.66 and the “relative permittivity at zero frequency” value ([4]; x2 = 0.3) was 14.71 ± 0.66. For the same molecule, the “relative permittivity at zero frequency” value ([4]; x2 = 0.4) was 14.62 ± 0.66, the “relative permittivity at zero frequency” value ([4]; x2 = 0.5) was 14.71 ± 0.66 and the “relative permittivity at zero frequency” value ([4]; x2 = 0.6) was 14.97 ± 0.66. The “relative permittivity at zero frequency” value ([4]; x2 = 0.7) was 15.39 ± 0.67, the “relative permittivity at zero frequency” value ([4]; x2 = 0.8) was 15.97 ± 0.68 and the “relative permittivity at zero frequency” value ([4]; x2 = 0.9) was 16.68 ± 0.7.
In the case of `OC1CCCCC1` [cyclohexanol] + O=C1CCCC1, the refractive index ([3]; x1 = 1) is reported as 1.4646 ± 0.0011 and the “relative permittivity at zero frequency” value ([4]; x1 = 1) is reported as 15.71 ± 0.68.
For `CCCCCCCCO` [octan-1-ol] + O=C1CCCCC1, the mass density ([5]; x1 = 1) was 821.98 ± 1 kg/m3, the refractive index ([3]; x1 = 1) was 1.4276 ± 0.0011 and the “relative permittivity at zero frequency” value ([4]; x1 = 1) was 9.85 ± 0.55.
For `CCCCO` [butan-1-ol], the mass density [6] was 805.92 ± 1 kg/m3, the refractive index [1] was 1.3971 ± 0.0011 and the “relative permittivity at zero frequency” value [2] was 17.49 ± 0.71.
In the case of `OC1CCCCC1` [cyclohexanol], the refractive index [1] is reported as 1.4646 ± 0.0011 and the “relative permittivity at zero frequency” value [2] is reported as 15.71 ± 0.68.
